Measurements as given in a melting point compilation (Tetko et al.; mined from patent text by program, amines drawn as free bases though some values may be those of a salt).

Row | melting point [°C] | SMILES
1 | 82 to 84 | COc1ccc(C(=O)COC(C)=O)cc1OC
2 | 158 | CN(C)c1nc(NCc2ccc(NC(=O)c3ccc(F)cc3)cc2)c2ccc(CO)cc2n1
3 | 119 to 121 | CC(=O)OCC1OC(c2ccc(F)c(Cc3cccs3)c2)C(OC(C)=O)C(OC(C)=O)C1OC(C)=O (configuration not stated)
4 | 172 to 173 | CCCCn1cc(C(=O)O)c(=O)c2cc(C)sc21
5 | 160 to 161 | Cc1cc(-c2nc3ccccc3c(=O)n2-c2ccc(C(F)(F)F)cc2)cc(C)c1OCCO
6 | 117 to 125 | CN(C)C=C(C#N)C(=O)c1ccco1
7 | 164 to 166 | CC(C)CN(CC(O)C(Cc1ccccc1)NC(=O)C(CC(N)=O)NC(=O)NCc1ccccc1)C(=O)NC(C)(C)C (configuration not stated)
8 | 129 to 131 | CCCCCCCCCCCCCCCCCCOc1cc(OCCCCCc2cccc(O)c2O)cc(N(CC(=O)O)CC(=O)O)c1
9 | 148 | CC=CCNc1cc(C(=O)O)cc(S(N)(=O)=O)c1Sc1ccc(NC(C)=O)cc1
10 | 162 to 164 | CC(C=O)Cc1cc(C(C)(C)C)c(O)c(C(C)(C)C)c1 (configuration not stated)
11 | 109 to 119 | CCOC(=S)Nc1nc(OCc2ccc(F)cc2)ncc1F
12 | 213 to 215 | CCOCc1nc2c(N)nc3ccccc3c2n1N(C)C
13 | 229 to 233 | CCN(CC)CCC/C=C/c1cc2ncc(C#N)c(Nc3ccc(Sc4nccn4C)c(Cl)c3)c2cc1OC
14 | 134 to 136 | CCOc1ccnc(N2CCN(C(=O)c3ccccc3C=O)CC2)n1
15 | 190 to 192 | CCOC(=O)C(=CNc1cc(O)cc(O)c1)C(=O)OCC
16 | 161 to 167 | CC1Cc2cc(S(N)(=O)=O)cc(C(=O)NCC3CCCN3Cc3ccccc3)c2O1 (configuration not stated)
17 | 94 to 97 | CCOC(=O)/C=C/c1ccc(OCCN2CCCC2=O)cc1OCc1ccccc1
18 | 170 to 173 | COc1cc2c(cc1OS(N)(=O)=O)CC(C)(C)N(C(=O)c1cc(OC)c(OC)c(OC)c1)C2C (configuration not stated)
19 | > 300 | CC(=O)Nc1nc2ncn(C)c(=S)n2n1
20 | 260 | CCCn1cc(C2(c3cccc(Br)c3)N=C(N)N(C)C2=O)cc1C(=O)CC (configuration not stated)
21 | 189 to 190 | CCOc1cc(-c2nnc3c4ccccc4c(OCc4cn(C)cn4)nn23)no1
22 | 173 to 174 | CN(C)N(CCC(N)=O)C(N)=O
23 | 210 to 212 | CCOc1cc(N)c(Cl)cc1C(=O)NC1CCN(CC2CCN(C(=S)N(C)C)CC2)CC1

Row | melting point [°C] | SMILES
24 | 52 to 58 | CCCCNC(=O)OCCCC(=O)c1ccccc1
25 | 206 | COc1cccc2c1CC(C(=O)NCCOc1ccc(C(=O)O)cc1)N2S(=O)(=O)c1ccc(-c2ccc(F)cc2F)cc1 (configuration not stated)
26 | 142 to 143 | CCCCc1oc2ccccc2c1C(=O)NCc1ccc2cc(OCC#N)ccc2c1
27 | 190 | COCC(Cl)C(=O)Nc1c(C(=O)CC(=O)Nc2nccs2)cccc1C(F)(F)F (configuration not stated)
28 | 66 | C=CC(=O)OCC(=O)OCCCCCCOC(=O)COC(=O)C=C
29 | 76 to 78 | CC(=O)N[C@H](COCc1cc(C)cc(C)c1)Cc1ccccc1
30 | 270 to 275 | CC(CN(C)C)OC(=O)c1ccc(NC(=O)CCn2cnc3c(=O)[nH]cnc32)cc1 (configuration not stated)
31 | 192 to 198 | COCc1c(S(C)(=O)=O)ccc(C(=O)C2C(=O)CCCC2=O)c1C
32 | 188 to 190 | CCOC(=O)c1cnc2cn[nH]c2c1Nc1cccs1
33 | 118 to 120 | C[C@@H](O)[C@H](NC(=O)Cc1ccccc1)C(=O)O
34 | 229 | Cc1cc([N+](=O)[O-])ccc1C(=O)Nc1ccc2ccc(Cl)nc2n1
35 | 61 to 63 | COC(=O)CCC(=O)c1ccc(C)cc1O
36 | 176 to 182 | CC(C)N=C(NC#N)Nc1cc(C(F)(F)F)cc(C(F)(F)F)c1
37 | 191 to 193 | C=CC(=O)NCc1c(-c2ccccc2)n[nH]c1C
38 | 255 to 257 | O=C(O)C1CCc2c([nH]c3ccc(O)cc23)C1 (configuration not stated)
39 | 138 to 139 | COc1cc(COc2nn(C)cc2C(=O)N(C)OC)ccc1OCc1nc(-c2ccccc2)oc1C
40 | 167 to 168 | C=C(C)C(=O)Oc1ccc2ccc(O)c(-n3nc4ccccc4n3)c2c1
41 | 218 to 220 | CCC(=O)N1Cc2cn[nH]c2-c2cc(N)ccc21
42 | 106 to 107 | COC(=O)c1ccc(CNC(=O)OCc2ccccc2)cc1OCc1ccccc1
43 | 93 to 95 | Cc1oc2c(C(O)CO)cccc2c1C (configuration not stated)
44 | 55 to 60 | COC(=O)C[C@H](NC(=O)OCc1ccccc1)C(=O)O
45 | 165 to 167 | CNc1cc(C(=O)CS(C)(=O)=O)cc(NC)c1Cl
46 | 152 to 153 | COC(=O)c1ccc(CN2CCOc3ccc(NC(=O)CC4CCCC4)cc32)c(OC)c1

Further lines, the molecule ahead of its results:

Row | SMILES | melting point [°C]
47 | CNC(=O)Oc1cc(C)c(NC(=O)COC)c(C)c1 | 180 to 182
48 | NS(=O)(=O)c1cc(Br)c2c(c1)S(=O)(=O)NC(C1CCCCC1)N2 (configuration not stated) | 254 to 258
49 | O=c1[nH]c2ccccc2c2nc(-c3ccco3)nn12 | 338 to 343
50 | O=C1NCCc2sc3ccccc3c21 | 143 to 144
51 | O=C(Nc1nc2ccc(Cl)cc2c2c1ncn2-c1ccccc1Cl)c1ccccc1 | 255 to 258
52 | Cc1ccc(C(C)C)c2c1CC(NNc1ncnc3c1ncn3C1OC(CO)C(O)C1O)CO2 (configuration not stated) | 98 to 101
53 | COc1ccc2ccc(N3C(=O)c4ccccc4C3OC(=O)CCCC(C)C)nc2n1 (configuration not stated) | 105
54 | CSc1nccc(-c2c(-c3ccc(F)cc3)ncn2C2CCN(C)CC2)n1 | 181 to 182
55 | O=C(O)Cc1c(C(=O)O)c2cc(Oc3ccc(C(F)(F)F)cc3)ccc2n1-c1ccc(N2CCOCC2)cc1 | 257 to 259
56 | Cc1cc(-c2ccc(Cl)cc2)cnc1N | 156
57 | Cc1nc(C=Cc2nc3ccccc3c(=O)n2-c2ccccc2Cl)cs1 | 219 to 221
58 | FC(F)(F)c1cc(-c2ccc(Cl)cc2)nc2c(-c3ccncc3)ncn12 | 290
59 | Nc1cccc([C@H]2C[C@H]2NC(=O)Nc2ccc(Cl)cn2)c1 (racemic) | 178
60 | O=C(Nc1ccc(CN2C(=O)[C@H]3CCC[C@H]3N(C(=O)CN3C(=O)c4ccccc4C3=O)c3ccccc32)cc1)c1ccccc1 (relative stereo) | 252 to 255
61 | O=C(Nc1csc(-c2ccncc2)n1)Nc1cccc2c1C1CCCCN1C2=O (configuration not stated) | 152
62 | O=C(O)/C=C/c1ccnc(-c2nc(=O)c3ccccc3s2)c1 | 284 to 285
63 | O=C(CBr)C1=Cc2ccccc2OC1 | 87
64 | CC(=O)NC[C@H]1CN(c2cc(F)c(N3CCC(n4nnc(N5CCN(Cc6ccccc6)CC5)n4)CC3)c(F)c2)C(=O)O1 | 188 to 190
65 | CNCCCNCCCSP(=O)(O)O | 115 to 120

Row | SMILES | melting point [°C]
66 | COc1ccc(-c2ccccc2NC(=N)N(C)C)cc1 | 130 to 131
67 | COc1cc(Br)c2c(c1)CCCN2 | 125 to 126
68 | Nc1nc(NCCNCC(O)COc2ccccc2)c2[nH]cnc2n1 (configuration not stated) | 169 to 171
69 | O=C1c2c(Cl)cccc2-n2cnc(C#Cc3ccccc3)c2[C@@H]2CCCN12 | 241 to 242
70 | ICCCCCOc1ccc(C2=C(c3ccccc3)CCCc3cc(OC4CCCCO4)ccc32)cc1 (configuration not stated) | 109 to 111
71 | O=C1C2CCCCC2C(=O)N1c1ccc(Cl)cc1F (configuration not stated) | 94 to 95.5
72 | Cc1c(C(=O)N[C@H](C)[C@](O)(Cn2cncn2)c2ccc(F)cc2F)cnn1-c1c(Cl)cccc1Cl | 226 to 227
73 | N=C1CCCN1Cc1ccc(Cl)nc1 | 166
74 | CCCCCCCCCCCCOC(=O)NCCCCC(N)C(=O)O (configuration not stated) | > 260
75 | O=C(O)COc1ccc([C@H]2c3ccc(O)cc3OC[C@H]2c2ccccc2)cc1 (racemic) | 178
76 | CCCn1c(=O)c2nc([C@@H]3CCC[C@H]3c3ccccc3)[nH]c2n(CCC)c1=O (relative stereo) | 152 to 153
77 | O=C1Cc2cccc(Oc3ccccc3F)c2O1 | 82 to 84
78 | O=C(CNc1cccc(F)c1)Nc1c(Cl)ccc2nc(N3CC[C@@H](O)C3)ccc12 | 218 to 220
79 | Fc1cccc(F)c1C(C1=NOCCO1)N1CCc2sccc2C1 (configuration not stated) | 151 to 153
80 | CC(=O)OC1CC2(C)C(CCC2(O)C(C)=O)C2CCC3=CC(=O)CCC3(C)C12 (configuration not stated) | 160
81 | N#Cc1ccc2ccccc2c1O | 182 to 183
82 | O=c1c(C=NO)c(Cl)nc2n1CCS2 | 148 to 150
83 | Sc1nc2ccc(Cl)cc2c2nc(-c3ccc(Br)o3)nn12 | 273 to 276
84 | S=C1CN=C(c2ccccc2Cl)c2ccccc2N1 | 228 to 229

Row | SMILES | melting point [°C]
85 | COC(=O)C1(Cl)SC=CC1=O (configuration not stated) | 70 to 71
86 | COc1cc(/C=C2\C(=O)NC(=O)\C2=C\c2ccccc2)ccc1OC1CCCC1 | 203 to 204
87 | FC(F)(F)c1cccc(CCc2nnc(-c3ccc4ncoc4c3)o2)c1 | 117 to 118
88 | CCCCCCCCCCCCCCCCCCNC(=O)OCC(CN)COC (configuration not stated) | 84 to 85
89 | CCCCCCCCC[C@@H](CC(N)=O)N(CCC)C(=O)[C@H](CCCC(=O)O)NC(=O)c1cn(Cc2ccccc2)c2ccccc12 | 155 to 160
90 | O=C(NCc1ccnc(Cl)c1)c1[nH]c2ccc(Cl)cc2c1S(=O)(=O)c1ccccc1 | 263 to 265
91 | Cc1[nH]cnc1/C=C/C(=O)c1cc2ccccc2s1 | 188 to 190
92 | Cn1c(NC(=O)c2ccccc2)nc2ccccc2c1=O | 185 to 187
93 | Clc1ccc(C#Cc2ccccc2)cn1 | 70 to 72
94 | O=c1oc(-c2ccccc2)cc(O)c1SCc1cccc(OCc2ccccc2)c1 | 140 to 141
95 | O=CN1CCC2=C(CCCC2)C1Cc1ccc(O)cc1 (configuration not stated) | 154 to 156
96 | CC1(C)OC(=S)Nc2ccc(-c3cccc(F)c3F)cc21 | 197 to 198
97 | Fc1ccc(Nc2nc(N/N=C/c3ccc4ccccc4c3)nc(N3CCOCC3)n2)cc1 | 225 to 226
98 | O=C(NC(Cc1ccc(F)cc1)C(=O)O)c1cn2cc(-c3ccc(Cl)cc3)ccc2n1 (configuration not stated) | 266
99 | CC(=O)Nc1cccc2c1C(=O)c1c-2n[nH]c1-c1ccncc1 | > 300
100 | COc1ccc(-c2cc3cc(OC)c(OC)cc3c(C)n2)cc1OC | 168 to 169
101 | CC(C)(C)NCC(O)COc1ccccc1C=Cc1cccc2c1CC(=O)N2 (configuration not stated) | 112
102 | CCN(CC)c1ccc2nc3c4ccccc4c(=Nc4ccccn4)cc-3oc2c1 | 169 to 170
